Measured values taken from ChEMBL document CHEMBL3286219, “NF-κB inhibitory activity of polyoxygenated steroids from the Vietnamese soft coral Sarcophyton pauciplicatum” (Bioorg Med Chem Lett, 2014).
pEC50: −log10 of the molar value. Active and inactive are the calls of the source. No cut-off for these calls is given here.

Experiments:
Type in all cases: cell-based
[1] = target: T1, Nuclear factor NF-kappa-B complex (Homo sapiens) (UniProt Q00653+P19838+Q04206); experiment: Inhibition of NF-kappaB activation in human HaCaT cells assessed as inhibition of TNFalpha/IFNgamma-induced transcriptional activity at 50 uM after 24 hrs by Renilla luciferase assay
[2] = system: HaCaT; experiment: Cytotoxicity against human HaCaT cells at 5 to 20 uM after 24 hrs by MTS assay
[3] = target: Nuclear factor NF-kappa-B complex (Homo sapiens, UniProt P19838+Q00653+Q04206); experiment: Inhibition of NF-kappaB activation in human HaCaT cells assessed as inhibition of TNFalpha/IFNgamma-induced transcriptional activity after 24 hrs by Renilla luciferase assay
[4] = target: T1, Nuclear factor NF-kappa-B complex (Homo sapiens); experiment: Inhibition of NF-kappaB activation in human HaCaT cells assessed as inhibition of TNFalpha/IFNgamma-induced iNOS mRNA expression after 1 hr by RT-PCR
[5] = target: T1, Nuclear factor NF-kappa-B complex (Homo sapiens); experiment: Inhibition of NF-kappaB activation in human HaCaT cells assessed as inhibition of TNFalpha/IFNgamma-induced COX2 mRNA expression after 1 hr by RT-PCR
[6] = target: T1, Nuclear factor NF-kappa-B complex (Homo sapiens); experiment: Inhibition of NF-kappaB activation in human HaCaT cells assessed as inhibition of TNFalpha/IFNgamma-induced ICAM-1 mRNA expression after 1 hr by RT-PCR

T1 sequence (P19838 whole entry, looked up): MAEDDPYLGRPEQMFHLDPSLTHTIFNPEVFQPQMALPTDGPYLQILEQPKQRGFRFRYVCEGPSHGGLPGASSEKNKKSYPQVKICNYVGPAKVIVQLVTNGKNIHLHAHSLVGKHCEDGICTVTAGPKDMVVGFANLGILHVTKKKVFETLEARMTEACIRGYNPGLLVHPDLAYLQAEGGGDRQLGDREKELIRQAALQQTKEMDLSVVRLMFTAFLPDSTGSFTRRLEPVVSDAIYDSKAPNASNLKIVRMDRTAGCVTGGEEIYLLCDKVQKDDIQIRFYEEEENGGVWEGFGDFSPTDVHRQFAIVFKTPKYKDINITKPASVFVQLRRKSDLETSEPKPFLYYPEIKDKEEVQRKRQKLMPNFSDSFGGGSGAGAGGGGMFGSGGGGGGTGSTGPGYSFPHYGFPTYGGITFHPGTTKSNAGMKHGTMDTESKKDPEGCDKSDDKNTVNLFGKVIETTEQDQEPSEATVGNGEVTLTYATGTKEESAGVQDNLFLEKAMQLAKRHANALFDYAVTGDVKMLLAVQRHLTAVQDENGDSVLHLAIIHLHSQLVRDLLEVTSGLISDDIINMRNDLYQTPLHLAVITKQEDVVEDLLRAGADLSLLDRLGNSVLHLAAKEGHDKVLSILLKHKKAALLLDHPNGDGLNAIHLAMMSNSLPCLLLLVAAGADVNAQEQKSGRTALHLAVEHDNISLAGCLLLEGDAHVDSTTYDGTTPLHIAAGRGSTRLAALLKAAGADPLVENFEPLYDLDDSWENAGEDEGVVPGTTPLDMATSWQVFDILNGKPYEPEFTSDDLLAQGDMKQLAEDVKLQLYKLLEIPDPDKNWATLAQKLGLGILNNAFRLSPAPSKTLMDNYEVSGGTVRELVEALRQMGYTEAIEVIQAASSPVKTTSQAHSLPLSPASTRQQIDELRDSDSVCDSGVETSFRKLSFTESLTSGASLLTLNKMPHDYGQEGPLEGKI
T1 sequence (Q00653 whole entry, looked up): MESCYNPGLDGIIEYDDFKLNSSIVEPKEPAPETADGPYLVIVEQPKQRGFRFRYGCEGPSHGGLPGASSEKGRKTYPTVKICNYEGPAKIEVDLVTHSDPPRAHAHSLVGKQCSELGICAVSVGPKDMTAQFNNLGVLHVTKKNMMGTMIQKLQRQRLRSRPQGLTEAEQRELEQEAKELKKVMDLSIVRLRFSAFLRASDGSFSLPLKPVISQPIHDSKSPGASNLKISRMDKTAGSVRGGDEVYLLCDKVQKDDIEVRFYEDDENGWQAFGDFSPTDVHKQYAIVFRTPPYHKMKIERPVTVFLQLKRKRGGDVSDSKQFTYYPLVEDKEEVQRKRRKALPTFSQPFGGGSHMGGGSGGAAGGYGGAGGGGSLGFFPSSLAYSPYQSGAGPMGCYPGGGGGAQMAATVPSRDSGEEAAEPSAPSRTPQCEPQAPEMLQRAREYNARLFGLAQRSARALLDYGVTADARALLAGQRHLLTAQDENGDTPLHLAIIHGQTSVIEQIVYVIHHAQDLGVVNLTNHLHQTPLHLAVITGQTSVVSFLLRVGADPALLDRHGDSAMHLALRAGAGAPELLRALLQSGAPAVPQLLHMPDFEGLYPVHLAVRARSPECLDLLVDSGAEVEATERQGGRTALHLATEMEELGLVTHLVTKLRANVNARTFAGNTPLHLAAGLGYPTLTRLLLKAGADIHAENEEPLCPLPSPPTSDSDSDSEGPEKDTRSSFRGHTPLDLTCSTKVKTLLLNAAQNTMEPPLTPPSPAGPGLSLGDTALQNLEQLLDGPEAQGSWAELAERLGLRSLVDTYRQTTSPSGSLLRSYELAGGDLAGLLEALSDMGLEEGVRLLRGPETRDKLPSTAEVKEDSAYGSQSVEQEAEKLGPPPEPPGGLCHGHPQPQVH
T1 sequence (Q04206 whole entry, looked up): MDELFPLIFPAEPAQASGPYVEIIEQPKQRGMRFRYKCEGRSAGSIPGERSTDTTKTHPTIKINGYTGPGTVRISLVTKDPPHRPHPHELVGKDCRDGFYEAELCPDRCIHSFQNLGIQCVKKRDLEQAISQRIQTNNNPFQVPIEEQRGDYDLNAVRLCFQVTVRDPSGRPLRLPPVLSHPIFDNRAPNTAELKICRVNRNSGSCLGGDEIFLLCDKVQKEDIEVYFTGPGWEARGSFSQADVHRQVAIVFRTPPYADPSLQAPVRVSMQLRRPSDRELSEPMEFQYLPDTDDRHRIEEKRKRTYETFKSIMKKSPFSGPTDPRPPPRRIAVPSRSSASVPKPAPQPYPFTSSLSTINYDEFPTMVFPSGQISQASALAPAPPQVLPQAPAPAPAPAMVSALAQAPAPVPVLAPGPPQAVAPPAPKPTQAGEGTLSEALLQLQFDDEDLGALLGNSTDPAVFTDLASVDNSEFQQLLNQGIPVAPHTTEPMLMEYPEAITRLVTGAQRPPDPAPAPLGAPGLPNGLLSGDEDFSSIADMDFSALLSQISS
Chain of Nuclear factor NF-kappa-B complex (P19838 1-433 limits assumed): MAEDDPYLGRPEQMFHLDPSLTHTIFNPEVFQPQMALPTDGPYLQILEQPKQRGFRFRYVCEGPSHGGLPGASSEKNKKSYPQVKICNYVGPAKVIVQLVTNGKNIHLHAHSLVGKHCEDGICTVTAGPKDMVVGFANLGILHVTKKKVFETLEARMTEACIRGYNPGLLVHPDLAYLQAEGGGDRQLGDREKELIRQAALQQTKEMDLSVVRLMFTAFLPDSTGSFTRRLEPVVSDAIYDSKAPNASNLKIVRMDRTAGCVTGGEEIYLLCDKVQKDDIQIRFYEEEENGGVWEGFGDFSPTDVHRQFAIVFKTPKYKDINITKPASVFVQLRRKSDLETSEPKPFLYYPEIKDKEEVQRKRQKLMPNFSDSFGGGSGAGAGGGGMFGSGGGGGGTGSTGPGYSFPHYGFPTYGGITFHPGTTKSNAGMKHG
Chain of Nuclear factor NF-kappa-B complex (Q00653 1-454 limits assumed): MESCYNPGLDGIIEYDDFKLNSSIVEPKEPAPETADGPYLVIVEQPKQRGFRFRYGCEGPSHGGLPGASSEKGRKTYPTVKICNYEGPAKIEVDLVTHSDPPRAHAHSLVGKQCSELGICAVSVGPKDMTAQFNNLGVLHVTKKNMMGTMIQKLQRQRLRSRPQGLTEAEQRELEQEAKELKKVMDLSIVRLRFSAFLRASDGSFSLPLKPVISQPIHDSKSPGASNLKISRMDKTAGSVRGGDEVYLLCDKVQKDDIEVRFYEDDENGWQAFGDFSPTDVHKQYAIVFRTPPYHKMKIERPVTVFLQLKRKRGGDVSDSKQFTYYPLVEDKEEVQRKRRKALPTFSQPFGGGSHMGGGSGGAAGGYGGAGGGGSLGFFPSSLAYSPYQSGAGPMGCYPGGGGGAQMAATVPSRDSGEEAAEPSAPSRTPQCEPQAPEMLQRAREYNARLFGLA
Chain of Nuclear factor NF-kappa-B complex (Q04206 whole entry): as the sequence (Q04206 whole entry, looked up) above

| inhibition [1] | pEC50 [3] | inhibition [4] | inhibition [5] | inhibition [6] | Structure (SMILES) | Activity [2] |
| --- | --- | --- | --- | --- | --- | --- |
| Active |  |  |  |  | C=C(C)[C@@H](C)CC[C@@H](C)[C@H]1CC[C@H]2[C@@H]3C[C@@H](O)[C@@]4(O)C[C@@H](O)C[C@@H](O)[C@]4(C)[C@H]3CC[C@]12C | Non-toxic |
|  | 4.58 |  |  |  | CC(=O)OC(C)(C)[C@@H](C)CC[C@@H](C)[C@H]1CC[C@H]2[C@@H]3C[C@@H](O)[C@@]4(O)C[C@@H](O)C[C@@H](O)[C@]4(C)[C@H]3CC[C@]12C | Non-toxic |
|  | 5.08 | Dose-dependent effect | Dose-dependent effect | Dose-dependent effect | CC(=O)OC(C)(C)[C@@H](C)/C=C/[C@@H](C)[C@H]1CC[C@H]2[C@@H]3C[C@@H](O)[C@@]4(O)C[C@@H](O)C[C@@H](O)[C@]4(C)[C@H]3CC[C@]12C | Non-toxic |
